Experimental data: patent US20230391748A1, “BICYCLIC INHIBITORS OF IRAK” (priority 2022, published 2023)

Key:
[1] = tested on: TNF-α in Human Primary Monocyte-Derived Dendritic Cells; assay: Gardiquimod-Induced TNF-α in Human Primary Monocyte-Derived Dendritic Cells; format: cell-based; conditions: Dendritic cell, IFNγ-primed monocyte-derived dendritic cells, 4 μg/ml Gardiquimod, 6 hours, TNF-α ELISA, read-out: TNFα (DC, GARD) (IC50)
Outline: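 Monocytes differentiated 7 days with GM-CSF and IL-4, then primed 24 h with 50 ng/ml IFN-γ. Compound added 1 h before 6 h stimulation with 4 μg/ml Gardiquimod, 0.5% DMSO final. Supernatant TNF-α measured by chemiluminescent ELISA; EC50 from curve fitting.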

IL23p19 in THP-1 Cells = assay: LPS Induced IL23p19 in THP-1 Cells (with IFNγ Primed) Assay; format: cell-based; conditions: Homo sapiens, THP-1, 18 h, read-out: IL23 (THP, LPS) (IC50, μM)
Outline: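 THP-1 cells (50K/well) primed with IFNγ (50 ng/mL) about 18 h, then given compound and stimulated with LPS for 18 h at 37 °C. Secreted IL-23p19 measured by sandwich ELISA with chemiluminescent read-out, giving EC50. Cell Titer Glo used on the remaining cells for toxicity.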

IRAK4 = IRAK4 (Homo sapiens (Human), UniProt Q9NWZ3); assay: IRAK4 ADP-Glo Assay; format: biochemical; conditions: MBP substrate
Outline: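 Human IRAK4 kinase reaction with MBP substrate plus ATP in Tris-HCl/MgCl2/BSA/DTT buffer, pH 7.4, run 60 min at room temperature or 30 min at 30 °C. ADP formed was measured by ADP-Glo luminescence after ATP depletion (40 min) and detection reagent (30 min).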

TNF-α in human PBMCs = assay: R848-induced TNF-α in human PBMCs Assay; format: cell-based; conditions: Homo sapiens, PBMC, 4 h, read-out: TNFα (PBMC, R848) (IC50, μM)
Outline: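 Human PBMCs at 200K/well were pretreated with compound, then R848-stimulated for 4 h at 37 °C, 5% CO2. Supernatant TNF-α quantified by chemiluminescent ELISA; EC50 from curve fitting.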

IRAK4, sequence (Q9NWZ3 whole entry): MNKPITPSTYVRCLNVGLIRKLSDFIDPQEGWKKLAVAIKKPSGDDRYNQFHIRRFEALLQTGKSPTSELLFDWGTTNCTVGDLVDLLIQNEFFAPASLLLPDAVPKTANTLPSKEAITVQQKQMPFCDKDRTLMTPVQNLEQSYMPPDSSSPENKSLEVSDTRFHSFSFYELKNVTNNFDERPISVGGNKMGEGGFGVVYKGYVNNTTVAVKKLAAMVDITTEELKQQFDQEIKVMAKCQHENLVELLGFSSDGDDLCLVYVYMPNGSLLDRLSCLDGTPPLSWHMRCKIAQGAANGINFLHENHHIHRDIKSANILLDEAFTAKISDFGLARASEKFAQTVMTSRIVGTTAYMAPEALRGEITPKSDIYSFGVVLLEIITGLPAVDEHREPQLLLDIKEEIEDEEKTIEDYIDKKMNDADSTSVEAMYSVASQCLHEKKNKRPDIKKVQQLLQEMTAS

Row | Compound | IC50 [1] | IC50 (IL23p19 in THP-1 Cells) | IC50 (IRAK4) | IC50 (TNF-α in human PBMCs)
1 | CC(C)Oc1cc2c(OC[C@@H]3CCC(=O)N3)ncc(-c3cnn(CCC4CCOCC4)c3)c2cc1C(N)=O [Compound I-37, (S)-7-isopropoxy-1-((5-oxopyrrolidin-2-yl)methoxy)-4-(1-(2-(tetrahydro-2H-pyran-4-yl)ethyl)-1H-pyrazol-4-yl)isoquinoline-6-carboxamide] | 296 nM | 1.34 µM | 13.7 nM | 0.324 µM
2 | CC(C)Oc1cc2c(OC[C@@H]3CCC(=O)N3)ncc(-c3cnn(CCN4CCOCC4)c3)c2cc1C(N)=O [Compound I-38, (S)-7-isopropoxy-4-(1-(2-morpholinoethyl)-1H-pyrazol-4-yl)-1-((5-oxopyrrolidin-2-yl)methoxy)isoquinoline-6-carboxamide] | 4030 nM | 3.41 µM | 21 nM | 1.49 µM
3 | CCO[C@H]1CC[C@H](n2cc(-c3cnc(OC[C@@H]4CCC(=O)N4)c4cc(OC(C)C)c(C(N)=O)cc34)cn2)CC1 [Compound I-39, 4-(1-(trans-4-ethoxycyclohexyl)-1H-pyrazol-4-yl)-7-isopropoxy-1-(((S)-5-oxopyrrolidin-2-yl)methoxy)isoquinoline-6-carboxamide] | 3520 nM | 0.775 µM | 33.3 nM | 0.693 µM
4 | CC(C)Oc1cc2c(OC[C@@H]3CCC(=O)N3)ncc(-c3cnn([C@H]4CC[C@](C)(O)CC4)c3)c2cc1C(N)=O [Compound I-40, 4-(1-((1r,4S)-4-hydroxy-4-methylcyclohexyl)-1H-pyrazol-4-yl)-7-isopropoxy-1-(((S)-5-oxopyrrolidin-2-yl)methoxy)isoquinoline-6-carboxamide] | 2420 nM | 0.817 µM | 17.1 nM | 0.188 µM
5 | CC(C)Oc1cc2c(OC[C@@H]3CCC(=O)N3)ncc(-c3cnn([C@H]4CC[C@@](C)(O)CC4)c3)c2cc1C(N)=O [Compound I-41, 4-(1-((1s,4R)-4-hydroxy-4-methylcyclohexyl)-1H-pyrazol-4-yl)-7-isopropoxy-1-(((S)-5-oxopyrrolidin-2-yl)methoxy)isoquinoline-6-carboxamide] | 10000 nM | 4.61 µM | 37.6 nM | 0.509 µM
6 | CCO[C@H]1C[C@@H](n2cc(-c3cnc(OC[C@@H]4CCC(=O)N4)c4cc(OC(C)C)c(C(N)=O)cc34)cn2)C1 [Compound I-42, 4-(1-(cis-3-ethoxycyclobutyl)-1H-pyrazol-4-yl)-7-isopropoxy-1-(((S)-5-oxopyrrolidin-2-yl)methoxy)isoquinoline-6-carboxamide] | 135 nM | 0.72 µM | 6.4 nM | 0.241 µM
7 | CC(C)Oc1cc2c(OC[C@@H]3CCC(=O)N3)ncc(-c3cnn([C@H]4C[C@@H](N(C)C)C4)c3)c2cc1C(N)=O [Compound I-43, 4-(1-(cis-3-(dimethylamino)cyclobutyl)-1H-pyrazol-4-yl)-7-isopropoxy-1-(((S)-5-oxopyrrolidin-2-yl)methoxy)isoquinoline-6-carboxamide] | 355 nM | 3.1 µM | 5 nM | 0.701 µM
8 | CC(C)Oc1cc2c(OC[C@@H]3CCC(=O)N3)ncc(-c3cnn(C4CCN(C(=O)OC(C)(C)C)CC4)c3)c2cc1C(N)=O [Compound I-44, tert-butyl (S)-4-(4-(6-carbamoyl-7-isopropoxy-1-((5-oxopyrrolidin-2-yl)methoxy)isoquinolin-4-yl)-1H-pyrazol-1-yl)piperidine-1-carboxylate] | 1050 nM | 0.937 µM | 20.9 nM | 0.727 µM
9 | CC(C)Oc1cc2c(OC[C@@H]3CCC(=O)N3)ncc(-c3cnn(C4CCNCC4)c3)c2cc1C(N)=O [Compound I-45, (S)-7-isopropoxy-1-((5-oxopyrrolidin-2-yl)methoxy)-4-(1-(piperidin-4-yl)-1H-pyrazol-4-yl)isoquinoline-6-carboxamide] | 1360 nM | 10.9 µM | 18.6 nM | 10 µM
10 | CC(C)Oc1cc2c(OC[C@@H]3CCC(=O)N3)ncc(-c3cnn(C4CCN(C)CC4)c3)c2cc1C(N)=O [Compound I-46, (S)-7-isopropoxy-4-(1-(1-methylpiperidin-4-yl)-1H-pyrazol-4-yl)-1-((5-oxopyrrolidin-2-yl)methoxy)isoquinoline-6-carboxamide] | 466 nM | 5.42 µM | 15.6 nM | 1.25 µM
11 | CC(C)Oc1cc2c(OC[C@@H]3CCC(=O)N3)ncc(-c3cn[nH]c3)c2cc1C(N)=O [Compound I-47, (S)-7-isopropoxy-1-((5-oxopyrrolidin-2-yl)methoxy)-4-(1H-pyrazol-4-yl)isoquinoline-6-carboxamide] | 1870 nM | 2.73 µM | 7.6 nM | 0.816 µM
12 | CC(C)Oc1cc2c(OC[C@@H]3CC(F)(F)C(=O)N3)ncc(C#CC3(O)CCCC3)c2cc1C(N)=O [Compound I-48, (S)-1-((4,4-difluoro-5-oxopyrrolidin-2-yl)methoxy)-4-((1-hydroxycyclopentyl)ethynyl)-7-isopropoxyisoquinoline-6-carboxamide] | 120 nM | 0.165 µM | 4.4 nM | 0.0569 µM
13 | CC(C)Oc1cc2c(OC[C@@H]3CC(F)(F)C(=O)N3)ncc(C#CC3CCOCC3)c2cc1C(N)=O [Compound I-49, (S)-1-((4,4-difluoro-5-oxopyrrolidin-2-yl)methoxy)-7-isopropoxy-4-((tetrahydro-2H-pyran-4-yl)ethynyl)isoquinoline-6-carboxamide] | 73.7 nM | 0.273 µM | 7.6 nM | 0.0853 µM
14 | CC(C)Oc1cc2c(OC[C@@H]3CC(F)(F)C(=O)N3)ncc(C#CCC3CCOCC3)c2cc1C(N)=O [Compound I-50, (S)-1-((4,4-difluoro-5-oxopyrrolidin-2-yl)methoxy)-7-isopropoxy-4-(3-(tetrahydro-2H-pyran-4-yl)prop-1-yn-1-yl)isoquinoline-6-carboxamide] | 230 nM | 1.62 µM | 4.8 nM | 0.115 µM
15 | CC(C)Oc1cc2c(OC[C@@H]3CC(F)(F)C(=O)N3)ncc(C#CC3(O)CCOCC3)c2cc1C(N)=O [Compound I-51, (S)-1-((4,4-difluoro-5-oxopyrrolidin-2-yl)methoxy)-4-((4-hydroxytetrahydro-2H-pyran-4-yl)ethynyl)-7-isopropoxyisoquinoline-6-carboxamide] | 1030 nM | 1.27 µM | 5.3 nM | 0.391 µM
16 | CC(C)Oc1cc2c(OC[C@@H]3CC(F)(F)C(=O)N3)ncc(C#CC3(O)CCNCC3)c2cc1C(N)=O [Compound I-53, (S)-1-((4,4-difluoro-5-oxopyrrolidin-2-yl)methoxy)-4-((4-hydroxypiperidin-4-yl)ethynyl)-7-isopropoxyisoquinoline-6-carboxamide] | 14200 nM | 11 µM | 6.3 nM | 3.06 µM
17 | CC(C)Oc1cc2c(OC[C@@H]3CC(F)(F)C(=O)N3)ncc(C#CC3CCN(C(=O)OC(C)(C)C)CC3)c2cc1C(N)=O [Compound I-54, tert-butyl (S)-4-((6-carbamoyl-1-((4,4-difluoro-5-oxopyrrolidin-2-yl)methoxy)-7-isopropoxyisoquinolin-4-yl)ethynyl)piperidine-1-carboxylate] | 1710 nM | 2.97 µM | 113 nM | 2.75 µM
18 | CC(C)Oc1cc2c(OC[C@@H]3CC(F)(F)C(=O)N3)ncc(C#CC3CCNCC3)c2cc1C(N)=O [Compound I-55, (S)-1-((4,4-difluoro-5-oxopyrrolidin-2-yl)methoxy)-7-isopropoxy-4-(piperidin-4-ylethynyl)isoquinoline-6-carboxamide] | 1220 nM | 4 µM | 3.5 nM | 1.2 µM
19 | CC(C)Oc1cc2c(OC[C@@H]3CC(F)(F)C(=O)N3)ncc(C#CC3CCN(C)CC3)c2cc1C(N)=O [Compound I-56, (S)-1-((4,4-difluoro-5-oxopyrrolidin-2-yl)methoxy)-7-isopropoxy-4-((1-methylpiperidin-4-yl)ethynyl)isoquinoline-6-carboxamide] | 24.9 nM | 0.422 µM | 3.3 nM | 0.136 µM
20 | CC(C)Oc1cc2c(OC[C@@H]3CC(F)(F)C(=O)N3)ncc(C#CC3(O)CCN(C)CC3)c2cc1C(N)=O [Compound I-57, (S)-1-((4,4-difluoro-5-oxopyrrolidin-2-yl)methoxy)-4-((4-hydroxy-1-methylpiperidin-4-yl)ethynyl)-7-isopropoxyisoquinoline-6-carboxamide] | 634 nM | 7.39 µM | 4.5 nM | 0.468 µM
21 | CCO[C@H]1CC[C@H](C#Cc2cnc(OC[C@@H]3CC(F)(F)C(=O)N3)c3cc(OC(C)C)c(C(N)=O)cc23)CC1 [Compound I-58, 1-(((S)-4,4-difluoro-5-oxopyrrolidin-2-yl)methoxy)-4-(((1r,4S)-4-ethoxycyclohexyl)ethynyl)-7-isopropoxyisoquinoline-6-carboxamide] | 22.5 nM | 2960 µM | 729 nM | 1.56 µM
